The source of these data is US7202241B2, “Benzoxazine derivatives and uses thereof” (Roche Palo Alto LLC, priority 2003, dated 2007).

The target in the assay is T1, recombinant human 5-HT6 receptor (Homo sapiens, UniProt P50406).
T1 construct: expressed in transfected cells; membranes
The assay can be described thus: in vitro radioligand binding, [3H]LSD competition in membranes of HEK293 cells expressing 5-HT6. The settings on record: [3H]LSD (5 nM) displacement, HEK293 cell membranes, 60 min at 37° C., pH 7.4. The protocol:
This example illustrates in vitro radioligand binding studies of compound of formula (I).
The binding activity of compounds of this invention in vitro was determined as follows. Duplicate determinations of ligand affinity are made by competing for binding of [^3H]LSD in cell membranes derived from HEK293 cells stably expressing recombinant human 5-HT6 receptor. This cell line was prepared by the method described by Monsma et al., Molecular Pharmacology, Vol. 43 pp. 320–327 (1993).
All determinations were made in assay buffer containing 50 mM Tris-HCl, 10 mM MgSO4, 0.5 mM EDTA, 1 mM ascorbic acid, pH 7.4 at 37° C., in a 250 microliter reaction volume. Assay tubes containing [^3H] LSD (5 nM), competing ligand, and membrane were incubated in a shaking water bath for 60 min. at 37° C., filtered onto Packard GF-B plates (pre-soaked with 0.3% PEI) using a Packard 96 well cell harvester and washed 3 times in ice cold 50 mM Tris-HCl. Bound [^3H] LSD was determined as radioactive counts per minute using Packard TopCount.
Displacement of [3H]LSD from the binding sites was quantified by fitting concentration-binding data to a 4-parameter logistic equation:
[formula] where Hill is the Hill slope, [ligand] is the concentration of competing radioligand and IC50 is the concentration of radioligand producing half-maximal specific binding of radioligand. The specific binding window is the difference between the Bmax and the basal parameters.

T1 sequence (P50406 whole entry): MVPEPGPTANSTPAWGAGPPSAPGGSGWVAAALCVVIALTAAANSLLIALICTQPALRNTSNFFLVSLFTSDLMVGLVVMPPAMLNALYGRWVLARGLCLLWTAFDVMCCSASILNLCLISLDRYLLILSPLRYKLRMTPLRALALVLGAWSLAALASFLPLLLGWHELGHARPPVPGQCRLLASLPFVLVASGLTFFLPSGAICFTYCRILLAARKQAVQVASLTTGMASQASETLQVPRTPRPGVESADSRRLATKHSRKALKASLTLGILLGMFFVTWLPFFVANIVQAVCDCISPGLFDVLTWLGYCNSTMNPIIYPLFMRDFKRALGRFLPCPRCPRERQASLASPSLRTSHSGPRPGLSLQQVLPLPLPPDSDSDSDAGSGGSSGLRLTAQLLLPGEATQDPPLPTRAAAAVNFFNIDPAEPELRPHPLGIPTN

Turning to `CC1(C)CN(S(=O)(=O)c2ccccc2F)c2cc(F)cc(N3CCNCC3)c2O1` [6-Fluoro-4-(2-fluoro-benzenesulfonyl)-2,2-dimethyl-8-piperazin-1-yl-3,4-dihydro-2H-benzo[1,4]oxazine], the Ki was 0.209 nM.

As to `O=S(=O)(c1ccccc1F)N1CCOc2c(N3CCNCC3)cccc21` [4-(2-Fluoro-benzenesulfonyl)-8-piperazin-1-yl-3,4-dihydro-2H-benzo[1,4]oxazine], the Ki was 1.26 nM. The same measure, in the same setting: the value for `O=S(=O)(c1ccccc1F)N1CCOc2c(N3CCNCC3)cc(F)cc21` [6-Fluoro-4-(2-fluoro-benzenesulfonyl)-8-piperazin-1-yl-3,4-dihydro-2H-benzo[1,4]oxazine] was 0.724 nM.

Take `O=S(=O)(c1cccc(F)c1)N1CC2(CCC2)Oc2c(N3CCNCC3)cccc21` [4-(3-Fluoro-benzenesulfonyl)-2,2-spiro-cyclobutan-8-piperazin-1-yl-3,4-dihydro-2H-benzo[1,4]oxazine]: the Ki was 1.17 nM. Still for that read-out and setting: the value for `Cc1cc(N2CCNCC2)c2c(c1)N(S(=O)(=O)c1cccc(F)c1)CC(C)(C)O2` [4-(3-Fluoro-benzenesulfonyl)-2,2,6-trimethyl-8-piperazinyl-yl-3,4-dihydro-2H-benzo[1,4]oxazine] was 0.407 nM. On the same count and under the same terms, the value for `O=S(=O)(c1ccccc1Cl)N1CCOc2c(N3CCNCC3)cccc21` [4-(2-Chloro-benzenesulfonyl)-8-piperazin-1-yl-3,4-dihydro-2H-benzo[1,4]oxazine] was 2.14 nM.

For `O=S(=O)(c1cccc(Cl)c1)N1CC2(CCC2)Oc2c(N3CCNCC3)cccc21` [4-(3-Chloro-benzenesulfonyl)-2,2-spiro-cyclobutan-8-piperazin-1-yl-3,4-dihydro-2H-benzo[1,4]oxazine], the pKi is reported as 9.30.

As for `O=S(=O)(c1cccc(F)c1)N1CCOc2c(N3CCNCC3)cccc21` [4-(3-Fluoro-benzenesulfonyl)-8-piperazin-1-yl-3,4-dihydro-2H-benzo[1,4]oxazine], the Ki was 11.2 nM.

In the case of `CC1(C)CN(S(=O)(=O)c2ccccc2F)c2cccc(N3CCNCC3)c2O1` [4-(2-Fluoro-benzenesulfonyl)-2,2-dimethyl-8-piperazin-1-yl-3,4-dihydro-2H-benzo[1,4]oxazine], the Ki was 0.209 nM. As for `Cc1cc(N2CCNCC2)c2c(c1)N(S(=O)(=O)c1cccc(F)c1)CCO2` [4-(3-Fluoro-benzenesulfonyl)-6-methyl-8-piperazin-1-yl-3,4-dihydro-2H-benzo[1,4]oxazine], the Ki is 2 nM.

As a reminder, the Ki is the equilibrium dissociation constant of an inhibitor or competing ligand from its target. Broadly, the pKi is the Ki on a negative log10 scale, so that one unit is a factor of ten.
